Data: patent publication US10588910B2, “Pharmaceutical composition comprising epidithiodioxopiperazine compound or derivative thereof, or pharmaceutically acceptable salt thereof, for preventing or treating pulmonary hypertension” (priority 2016, dated 2020)
Several values for one entry are separate records, joined by “and”; a condition that tells them apart may be missing. Equal values may be shown once.

System: rat models in which pulmonary arterial hypertension is induced by monocrotaline (MCT)
Experiment: Monocrotaline-induced pulmonary arterial hypertension rat model: heart mass, RV/(LV+septum) ratio, pulmonary arterial wall thickness (H&E)
Format: in vivo, Male SD rats
Details: for hypertrophy of the right ventricle and pulmonary artery intimal thickening: animals with pulmonary arterial hypertension induced by monocrotaline; for hypertrophy of the right ventricle and pulmonary artery intimal thickening / therapeutic effect on pulmonary arterial hypertension: summary statement; for Total mass (heart) / LV + Septum (mass), Average / RV (right ventricle mass), Average / RV/LV + Septum, Average / Total mass (heart), Average / LV + Septum (mass) / RV (right ventricle mass) / RV/LV + Septum: 3 weeks; for Total mass (heart) / LV + Septum (mass) / RV (right ventricle mass) / RV/LV + Septum: individual rats; for LV + Septum (mass), Average / RV (right ventricle mass), Average / RV/LV + Septum, Average / Total mass (heart), Average: group average
Experimental: Male SD rats weighing approximately 210 g were used as animal models. In order to induce pulmonary arterial hypertension, a single intraperitoneal injection of monocrotaline (MCT) at a dose of 60 mg/kg was carried out. Accordingly, the rat models in which pulmonary arterial hypertension is induced were maintained for 3 weeks while test drugs were administered or not administered, and then the rat models were sacrificed. Thereafter, the hearts were excised and analyzed.
Chaetocin (the compound of Formula 2), which is a representative epidithiodioxopiperazine compound, was administered as a test drug to the pulmonary arterial hypertension animal models prepared according to Preparation Example 1 above at each dose of 6 μg, 12 μg, and 30 μg every 3 days. Normal rats in which MCT is not administered were used as the control group; and rats in which pulmonary arterial hypertension is induced by administering only MCT were used as the MCT group. The control group and each experimental group consisted of 3 to 4 rats.
The hearts were excised as in Preparation Example 1, and the excised hearts were measured for their total mass. Thereafter, the right ventricle (RV) was separated and the masses of each of the right ventricle, left ventricle, and cardiac septum (LV+septum) were separately measured to calculate the ratio. The results of the measurement of each experimental animal, the normal rats (control group), the MCT group, and the experimental groups (chaetocin groups; MCT+(dose μg)) in which chaetocin is administered at each dose of 30 μg, 12 μg, and 6 μg are shown in order in Tables 1 to 5.
Further, the sizes of the excised entire hearts and separated right ventricles were visually observed (FIG. 1), and the thicknesses of the pulmonary arterial walls were measured by H&E staining (FIGS. 2 to 11). In addition, in order to visualize the difference in the heart and pulmonary artery according to the dose-dependent chaetocin administration after the pulmonary arterial hypertension induction in the pulmonary arterial hypertension model, the average values of the heart mass, the ratio of the right ventricle to the left ventricle, and the thickness of the pulmonary artery wall, which are calculated from the hearts excised from each animal model, are shown in FIGS. 12 to 14, respectively. […]

[1] = MCT rats, chaetocin 6 μg every 3 days
[2] = MCT rats, chaetocin 12 μg every 3 days
[3] = MCT rats, chaetocin 30 μg every 3 days

In the case of CN1C(=O)C2SSC1C(=O)N2C [5,7-Dimethyl-2,3-dithia-5,7-diazabicyclo[2.2.2]octane-6,8-dione], the “hypertrophy of the right ventricle and pulmonary artery intimal thickening” value is reported as “reduced to a level similar to normal” and the “therapeutic effect on pulmonary arterial hypertension” value is reported as “excellent therapeutic effect”.
CN1C(=O)C23CC4(C56CC78SSC(CO)(C(=O)N7C5Nc5ccccc56)N(C)C8=O)c5ccccc5NC4N2C(=O)C1(CO)SS3 (stereo not shown) [chaetocin] was tested, and the “Total mass (heart)” value (MCT 60 mg/kg i.p. rats, chaetocin 30 μg every 3 days) was 1185 mg and 865 mg and 1135 mg and 1258 mg, the “LV + Septum (mass), Average” value [1] was 718.3 mg and the “RV (right ventricle mass), Average” value [1] was 190.0 mg. The “RV/LV + Septum, Average” value [1] was 0.26, the “Total mass (heart), Average” value [1] was 908.3 mg and the “LV + Septum (mass)” value [1] was 732 mg and 681 mg and 742 mg. The “RV (right ventricle mass)” value [1] was 190 mg and 175 mg and 205 mg, the “RV/LV + Septum” value [1] was 0.26 (2×) and 0.28 and the “Total mass (heart)” value [1] was 922 mg and 856 mg and 947 mg. For the same compound, the “LV + Septum (mass), Average” value [2] was 935.7 mg, the “RV (right ventricle mass), Average” value [2] was 259.0 mg and the “RV/LV + Septum, Average” value [2] was 0.28. For the same compound, the “Total mass (heart), Average” value [2] was 1194.7 mg, the “LV + Septum (mass)” value [2] was 913 mg and 968 mg and 926 mg and the “RV (right ventricle mass)” value [2] was 261 mg and 295 mg and 221 mg. The “RV/LV + Septum” value [2] was 0.29 and 0.30 and 0.24, the “Total mass (heart)” value [2] was 1174 mg and 1263 mg and 1147 mg and the “LV + Septum (mass), Average” value [3] was 870.8 mg. For the same compound, the “RV (right ventricle mass), Average” value [3] was 240.0 mg, the “RV/LV + Septum, Average” value [3] was 0.3 and the “Total mass (heart), Average” value [3] was 1110.8 mg. The “LV + Septum (mass)” value [3] was 921 mg and 689 mg and 874 mg and 999 mg, the “RV (right ventricle mass)” value [3] was 264 mg and 176 mg and 261 mg and 259 mg and the “RV/LV + Septum” value [3] was 0.29 and 0.26 (2×) and 0.30. For the same compound, the “hypertrophy of the right ventricle and pulmonary artery intimal thickening” value was “reduced to a level similar to normal” and the “therapeutic effect on pulmonary arterial hypertension” value was “excellent therapeutic effect”.
